A short description of data set [1]: Solubility of CHIR99021 diHCl in PBS with or without 17 wt % poloxamer 407, judged by eye and transmitted light microscopy. In kind it is physicochemical. Particulars: 17 wt % poloxamer 407 in 1×PBS versus 1×PBS alone; 25 mg/ml (supersaturated); pH approximately 7.5; stirred overnight at room temperature. How it is done:
CHIR99021 diHCl was combined with either 1×PBS or 17 wt % poloxamer 407 in 1×PBS at a concentration of 25 mg/ml, which was supersaturated for both solutions. After stirring the mixtures overnight at room temperature, the pH of the PBS buffers was adjusted to a pH of approximately 7.5.

Data set [2] can be described thus: Solubility of CHIR99021 diHCl in Poloxamer P-407/water solutions under refrigeration. The following applies: for solubility at 2 days: aqueous with cosolvent or surfactant or cyclodextrin, thermodynamic from solid, no DMSO or other additives, read-out: CHIR99021 diHCl Conc (solubility). In kind it is physicochemical. How it is done: CHIR99021 diHCl was combined with Poloxamer P-407 and water. Samples were prepared ice-cold and allowed to incubate in the refrigerator for 2 days with occasional vortexing.
The solubility results shown below in Table 1 for refrigeration conditions. The only components in the poloxamer solution in the samples were P-407 and water (no DMSO or any other additives). The 20% sample was a gel at room temperature and the 15% sample was syrup, while the 10% and 5% samples were more fluid.

Read-outs that look alike come from different tables or passages of the source.

One compound from patent US11033546B2, “Solubilized compositions for controlled proliferation of stem cells / generating inner ear hair cells using a GSK3 inhibitor: I” (Frequency Therapeutics, Inc., priority 2016, dated 2021) can be followed below.

Usually solubility stands for the concentration that dissolves in the medium under given conditions.

As to `Cc1c[nH]c(-c2cnc(NCCNc3ccc(C#N)cn3)nc2-c2ccc(Cl)cc2Cl)n1` [CHIR99021 diHCl, 6-[[2-[[4-(2,4-Dichlorophenyl)-5-(5-methyl-1H-imidazol-2-yl)-2-pyrimidinyl]amino]ethyl]amino]-3-pyridinecarbonitrile], the “solubility as judged by eye and transmitted light microscopy” value in data set [1] is “appeared more soluble”. Further, the “solubility trend in P-407 solutions” value in data set [2] (5% to 20% P-407 in water) is “improved solubility with increasing % poloxamer concentration”. Further, the solubility at 2 days was determined as 2.6 µg/mL in data set [2] (10% Poloxamer P-407 in water, 10% P-407 in water); 7.9 µg/mL in data set [2] (15% Poloxamer P-407 in water, 15% P-407 in water); 13.5 µg/mL in data set [2] (20% Poloxamer P-407 in water, 20% P-407 in water).
